Where two headings read alike, the source gives them in different places.
Assays:
[1] = system: TNFα production in LPS-stimulated human monocytes; experiment: Cot Monocyte TNFα Cell Based Assay; conditions: TNFα in LPS-stimulated human monocytes, read-out: EC50 TNF
Outline: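 Human monocytes (5,000 cells/well) pretreated with compound for 1 hour at 37° C (0.5% DMSO), then stimulated with 50 pg/ml LPS for 4 hours. Total TNFα measured by TR-FRET after overnight antibody incubation at room temp, expressed as percent of control between unstimulated and stimulated cells.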

[2] = target: T1, human Cot catalytic domain (30-397 amino acids) (Homo sapiens, UniProt P41279); experiment: High Throughput Cot Biochemical Assay (KinEASE TR-FRET); conditions: Cot biochemical HTRF (KinEASE TR-FRET) assay; read-out: IC50 HTRF
T1 construct: Purified recombinant human Cot catalytic domain (30-397 amino acids) was purchased from Cama Biosciences; purchased Cama Biosciences (so in the source)
T1 sequence (P41279 30-397): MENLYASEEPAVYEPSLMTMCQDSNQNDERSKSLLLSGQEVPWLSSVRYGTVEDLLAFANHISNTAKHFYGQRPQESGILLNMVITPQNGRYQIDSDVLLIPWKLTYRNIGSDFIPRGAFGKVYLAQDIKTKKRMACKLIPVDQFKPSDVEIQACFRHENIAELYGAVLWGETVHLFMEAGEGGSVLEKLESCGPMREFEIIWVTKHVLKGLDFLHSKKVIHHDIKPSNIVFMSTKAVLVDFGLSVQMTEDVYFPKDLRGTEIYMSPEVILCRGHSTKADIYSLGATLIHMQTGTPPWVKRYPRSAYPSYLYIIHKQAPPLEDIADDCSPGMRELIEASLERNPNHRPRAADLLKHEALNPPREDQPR
Outline: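 Recombinant human Cot catalytic domain (aa 30-397), 5 nM, with 1 μM STK3 peptide and 400 μM ATP in MOPS pH 7.0 buffer with MgOAc, DTT, BSA, NP-40, glycerol, 0.1% DMSO. Phosphorylated XL665-peptide detected by Eu-[…] antibody TR-FRET.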

Row | EC50 ([1]; Homo sapiens, Monocyte) | IC50 [2] | EC50 [1] | SMILES
1 | 338 nM | 11 nM |  | CC[C@@H](Nc1c(C#N)cnc2c(Cl)cc(N[C@H](c3cn(CCF)nn3)c3ccccc3F)cc12)c1ccccc1 [Example 446, 8-chloro-6-(((S)-(1-(2-fluoroethyl)-1H-1,2,3-triazol-4-yl)(2-fluorophenyl)methyl)amino)-4-(((R)-1-phenylpropyl)amino) quinoline-3-carbonitrile]
2 | 1930 nM | 23 nM |  | N#Cc1cnc2c(Cl)cc(N[C@H](c3c[nH]nn3)c3ccccc3F)cc2c1Nc1cnc(F)c(F)c1 [Example 447, (S)-8-chloro-4-((5,6-difluoropyridin-3-yl)amino)-6-(((2-fluorophenyl) (1H-1,2,3-triazol-4-yl)methyl)amino)quinoline-3-carbonitrile]
3 | 1860 nM | 26 nM |  | N#Cc1cnc2c(Cl)cc(N[C@H](c3c[nH]nn3)c3cccc(F)c3F)cc2c1Nc1cnc(F)c(F)c1 [Example 448, (S)-8-chloro-6-(((2,3-difluorophenyl)(1H-1,2,3-triazol-4-yl)methyl)amino)-4-((5,6-difluoropyridin-3-yl)amino)quinoline-3-carbonitrile]
4 | 830 nM | 161 nM |  | N#Cc1cnc2c(Cl)cc(N[C@@H](c3ccc(F)cc3)c3c[nH]nn3)cc2c1Nc1ccc(Cl)c(Cl)c1F [Example 449, (S)-8-chloro-4-((3,4-dichloro-2-fluorophenyl)amino)-6-(((4-fluorophenyl)(1H-1,2,3-triazol-4-yl)methyl)amino)quinoline-3-carbonitrile]
5 | 305 nM | 3 nM |  | N#Cc1cnc2c(Cl)cc(N[C@@H](c3cccc(-c4ncco4)c3)c3cn(C4CC4)nn3)cc2c1Nc1cnc(F)c(F)c1 [Example 450, (S)-8-chloro-6-(((1-cyclopropyl-1H-1,2,3-triazol-4-yl)(3-(oxazol-2-yl)phenyl)methyl)amino)-4-((5,6-difluoropyridin-3-yl)amino)quinoline-3-carbonitrile]
6 | 266 nM | 68 nM |  | COC(C)(C)CNc1c(C#N)cnc2c(Cl)cc(N[C@@H](c3ccccc3)c3cn(C4CCN(C(C)(C)C)CC4)nn3)cc12 [Example 451]
7 | 420 nM | 98 nM |  | CC1(CNc2c(C#N)cnc3c(Cl)cc(N[C@@H](c4ccccc4)c4cn(C5CCN(C(C)(C)C)CC5)nn4)cc23)COC1 [Example 452, (S)-6-(((1-(1-(tert-butyl)piperidin-4-yl)-1H-1,2,3-triazol-4-yl)(phenyl)methyl)amino)-8-chloro-4-(((3-methyloxetan-3-yl)methyl)amino)quinoline-3-carbonitrile]
8 | 231 nM | 11 nM |  | CC1(CNc2c(C#N)cnc3c(Cl)cc(N[C@@H](c4ccccc4)c4cn(C5CCN(C(C)(C)C)CC5)nn4)cc23)CCC1 [Example 453, (S)-6-(((1-(1-(tert-butyl)piperidin-4-yl)-1H-1,2,3-triazol-4-yl)(phenyl)methyl)amino)-8-chloro-4-(((1-methylcyclobutyl)methyl)amino)quinoline-3-carbonitrile]
9 | 1770 nM | 49 nM |  | CC(C)(C)N1CCC(n2cc([C@@H](Nc3cc(Cl)c4ncc(C#N)c(NCC5CCC5)c4c3)c3ccccc3)nn2)CC1 [Example 454, (S)-6-(((1-(1-(tert-butyl)piperidin-4-yl)-1H-1,2,3-triazol-4-yl)(phenyl)methyl)amino)-8-chloro-4-((cyclobutylmethyl)amino) quinoline-3-carbonitrile]
10 | 171 nM | 48 nM |  | CC1(CNc2c(C#N)cnc3c(Cl)cc(N[C@@H](c4ccccc4)c4cn(C5CCN(C(C)(C)C)CC5)nn4)cc23)CC1 [Example 455, (S)-6-(((1-(1-(tert-butyl)piperidin-4-yl)-1H-1,2,3-triazol-4-yl)(phenyl)methyl)amino)-8-chloro-4-(((1-methylcyclopropyl)methyl)amino)quinoline-3-carbonitrile]
11 | 305 nM | 7 nM |  | N#Cc1cnc2c(Cl)cc(N[C@@H](c3ccc(F)cc3)c3cn(C4CC4)nn3)cc2c1Nc1cnc(F)c(F)c1 [Example 456, (S)-8-chloro-6-(((1-cyclopropyl-1H-1,2,3-triazol-4-yl)(4-fluorophenyl)methyl)amino)-4-((5,6-difluoropyridin-3-yl)amino)quinoline-3-carbonitrile]
12 | 616 nM | 43 nM |  | CC(C)(C)n1cc([C@@H](Nc2cc(Cl)c3ncc(C#N)c(Nc4cnc(F)c(F)c4)c3c2)c2ccc(F)cc2)nn1 [Example 457, (S)-6-(((1-(tert-butyl)-1H-1,2,3-triazol-4-yl)(4-fluorophenyl)methyl)amino)-8-chloro-4-((5,6-difluoropyridin-3-yl)amino)quinoline-3-carbonitrile]

Continued, compound first:

Row | SMILES | EC50 ([1]; Homo sapiens, Monocyte) | IC50 [2] | EC50 [1]
13 | CC[C@@H](Nc1c(C#N)cnc2c(Cl)cc(NC(c3ccc(F)cc3)c3nn[nH]c3OC)cc12)c1ccccc1 (stereo partly drawn) [Example 434, 8-chloro-6-(((4-fluorophenyl)(5-methoxy-1H-1,2,3-triazol-4-yl)methyl)amino)-4-(((R)-1-phenylpropyl)amino)quinoline-3-carbonitrile] | 2380 nM | 2760 nM | 
14 | COc1[nH]nnc1C(Nc1cc(Cl)c2ncc(C#N)c(Nc3cnc(F)c(F)c3)c2c1)c1ccc(F)cc1 (stereo not drawn) [Example 435, 8-chloro-4-((5,6-difluoropyridin-3-yl)amino)-6-(((4-fluorophenyl)(5-methoxy-1H-1,2,3-triazol-4-yl)methyl)amino)quinoline-3-carbonitrile] | > 10000 nM | 7930 nM | 
15 | N#Cc1cnc2c(Cl)cc(N[C@@H](c3ccc(F)cc3)c3c[nH]nn3)cc2c1NCC1CCCCO1 (stereo partly drawn) [Example 436, 8-chloro-6-(((S)-(4-fluorophenyl)(1H-1,2,3-triazol-4-yl)methyl)amino)-4-(((tetrahydro-2H-pyran-2-yl)methyl)amino)quinoline-3-carbonitrile] | 3030 nM | 1360 nM | 
16 | CC(C)(C)N1CCC(n2cc([C@@H](Nc3cc(Cl)c4ncc(C#N)c(NCC5CCCCO5)c4c3)c3ccc(F)cc3)nn2)CC1 (stereo partly drawn) [Example 437, 6-(((S)-(1-(1-(tert-butyl)piperidin-4-yl)-1H-1,2,3-triazol-4-yl)(4-fluorophenyl)methyl)amino)-8-chloro-4-(((tetrahydro-2H-pyran-2-yl)methyl)amino)quinoline-3-carbonitrile] | 3910 nM | 448 nM | 
17 | N#Cc1cnc2c(Cl)cc(N[C@@H](c3ccc(F)cc3)c3c[nH]nn3)cc2c1NC1CCCC(O)C1 (stereo partly drawn) [Example 438, 8-chloro-6-(((S)-(4-fluorophenyl)(1H-1,2,3-triazol-4-yl)methyl)amino)-4-((3-hydroxycyclohexyl)amino) quinoline-3-carbonitrile] | 5130 nM | 135 nM | 
18 | N#Cc1cnc2c(Cl)cc(N[C@@H](c3ccc(F)cc3)c3c[nH]nn3)cc2c1NC1CCCC(O)C1 (stereo partly drawn) [Example 439, 8-chloro-6-(((S)-(4-fluorophenyl)(1H-1,2,3-triazol-4-yl)methyl)amino)-4-((3-hydroxycyclohexyl)amino) quinoline-3-carbonitrile] |  | 2960 nM | > 10000 nM
19 | CC(C)(C)N1CCC(n2cc([C@@H](Nc3cc(Cl)c4ncc(C#N)c(NC5CCCC(O)C5)c4c3)c3ccc(F)cc3)nn2)CC1 (stereo partly drawn) [Example 440, 6-(((S)-(1-(1-(tert-butyl)piperidin-4-yl)-1H-1,2,3-triazol-4-yl)(4-fluorophenyl)methyl)amino)-8-chloro-4-((3-hydroxycyclohexyl)amino) quinoline-3-carbonitrile] |  | 46 nM | 371 nM
20 | CC(C)(C)N1CCC(n2cc([C@@H](Nc3cc(Cl)c4ncc(C#N)c(NC5CCCC(O)C5)c4c3)c3ccc(F)cc3)nn2)CC1 (stereo partly drawn) [Example 441, 6-(((S)-(1-(1-(tert-butyl)piperidin-4-yl)-1H-1,2,3-triazol-4-yl)(4-fluorophenyl)methyl)amino)-8-chloro-4-((3-hydroxycyclohexyl)amino) quinoline-3-carbonitrile] |  | 804 nM | 5820 nM
21 | COc1ccccc1CNc1c(C#N)cnc2c(Cl)cc(N[C@@H](c3ccc(F)cc3)c3cn(C4CCN(C(C)(C)C)CC4)nn3)cc12 [Example 442, (S)-6-(((1-(1-(tert-butyl)piperidin-4-yl)-1H-1,2,3-triazol-4-yl)(4-fluorophenyl)methyl)amino)-8-chloro-4-((2-methoxybenzyl)amino) quinoline-3-carbonitrile] | 4900 nM | 193 nM | 
22 | N#Cc1cnc2c(Cl)cc(N[C@@H](c3ccc(F)cc3)c3c[nH]nn3)cc2c1NCC(F)(F)F [Example 443, (S)-8-chloro-6-(((4-fluorophenyl)(1H-1,2,3-triazol-4-yl)methyl)amino)-4-((2,2,2-trifluoroethyl)amino) quinoline-3-carbonitrile] | > 10000 nM | 2700 nM | 
23 | CC[C@@H](Nc1c(C#N)cnc2c(Cl)cc(N[C@H](c3c[nH]nn3)c3ccccc3F)cc12)c1ccccc1 [Example 444, 8-chloro-6-(((S)-(2-fluorophenyl)(1H-1,2,3-triazol-4-yl)methyl)amino)-4-(((R)-1 phenylpropyl)amino) quinoline-3-carbonitrile] | 855 nM | 28 nM | 
24 | CC[C@@H](Nc1c(C#N)cnc2c(Cl)cc(N[C@H](c3c[nH]nn3)c3cccc(F)c3F)cc12)c1ccccc1 [Example 445, 8-chloro-6-(((S)-(2,3-difluorophenyl)(1H-1,2,3-triazol-4-yl)methyl)amino)-4-(((R)-1-phenylpropyl)amino) quinoline-3-carbonitrile] | 1270 nM | 46 nM | 

— patent publication US10316017B2, “COT modulators and methods of use thereof” (Gilead Sciences, Inc., priority 2015, dated 2019)
